Patent publication US20070292908A1, “Method for Detecting Streptococcus Agalactiae Using Alpha-Glucosidase Activity” (BIOMERIEUX, priority 2004, published 2007)

Experiments:
[1] = test system: Streptococcus agalactiae; assay: Number of strains detected as a function of the concentration of α-glucosidase substrate; format: cell-based; settings: positive when I≧0.6, 8 strains
Description: The above protocol was repeated, with the exception that the concentration of enzymatic substrate was varied.
Table 2 below gives the number of strains detected (considered to be positive when I≧0.6) as a function of the concentration of substrate.

[2] = test system: Streptococcus agalactiae; assay: Detection of Streptococcus agalactiae strains on reaction media containing an α-glucosidase enzymatic substrate; format: cell-based; settings: substrate 0.1 g/l; for intensity (I) of coloration: arbitrary scale 0 to 4
Procedure: The reaction media were prepared by mixing heart-brain extract (4.84 g/l; Solabia), meat infusion (1.96 g/l; Solabia), biothione (1 g/l; Solabia), biotrypcase (7.2 g/l; Solabia), sodium carbonate (0.3 g/l; VWR), sodium pyruvate (2 g/l; Fluka), HEPES buffer (0.4 g/l; Sigma), lactalbumin peptone (2 g/l; DMV), glucose (1 g/l; Merck), American agar (2 g/l; Sobigel) and European agar (12 g/l; Roko).
The media were then poured into a Petri dish for subsequent inoculation with bacterial strains.
Eight Streptococcus agalactiae strains derived from the applicant's collection, suspended in physiological saline, were inoculated so as to give isolated colonies on each of the media. The dishes were then incubated at 37° C. for 48 hours. The colonies formed are examined visually after 18, 24 and more than 40 hours of incubation. The coloration of these colonies, the growth and also the intensity of this coloration were noted.
The results are given in table 1 below and are expressed: • in terms of growth (G) with the size being indicated in mm, • in terms of intensity (1) of coloration based on an arbitrary scale ranging from 0 to 4, 0 corresponding to an absence of activity and 4 corresponding to the presence of a very intense coloration, • in terms of color (Co) with T=turquoise, R=pink or red, Gr=green, Mg=magenta, • according to the incubation time in hours (T).

For “5-bromo-4-chloro-3-indolyl-N-methyl-α-D-glucopyranoside [GreenA-alpha-Glu]”, the “number of strains detected” value ([1]; substrate 100 mg/l, incubation 24 h) was 6/8, the “number of strains detected” value ([1]; substrate 100 mg/l, incubation 48 h) was 8/8 and the “number of strains detected” value ([1]; substrate 200 mg/l, incubation 24 h) was 7/8. The “number of strains detected” value ([1]; substrate 200 mg/l, incubation 48 h) was 8/8, the “number of strains detected” value ([1]; substrate 300 mg/l, incubation 24 h) was 7/8 and the “number of strains detected” value ([1]; substrate 300 mg/l, incubation 48 h) was 7/8. For the same substance, the “intensity (I) of coloration” value ([2]; strain 0008200, 18 h) was 0.5, the “growth (G), size” value ([2]; strain 0008200, 18 h incubation) was 0.7 mm and the “intensity (I) of coloration” value ([2]; strain 0008200, 24 h) was 0.8. The “growth (G), size” value ([2]; strain 0008200, 24 h incubation) was 0.7 mm, the “intensity (I) of coloration” value ([2]; strain 0008200, >40 h) was 2 and the “growth (G), size” value ([2]; strain 0008200, >40 h incubation) was 0.7 mm. For the same substance, the “intensity (I) of coloration” value ([2]; strain 0008206, 18 h) was 0.6, the “growth (G), size” value ([2]; strain 0008206, 18 h incubation) was 0.7 mm and the “intensity (I) of coloration” value ([2]; strain 0008206, 24 h) was 1. The “growth (G), size” value ([2]; strain 0008206, 24 h incubation) was 0.7 mm, the “intensity (I) of coloration” value ([2]; strain 0008206, >40 h) was 2 and the “growth (G), size” value ([2]; strain 0008206, >40 h incubation) was 0.8 mm. For the same substance, the “intensity (I) of coloration” value ([2]; strain 0101060, 18 h) was 0.8, the “growth (G), size” value ([2]; strain 0101060, 18 h incubation) was 0.3 mm and the “intensity (I) of coloration” value ([2]; strain 0101060, 24 h) was 1.7. The “growth (G), size” value ([2]; strain 0101060, 24 h incubation) was 0.4 mm, the “intensity (I) of coloration” value ([2]; strain 0101060, >40 h) was 3.5 and the “growth (G), size” value ([2]; strain 0101060, >40 h incubation) was 0.5 mm. The “intensity (I) of coloration” value ([2]; strain 7611003, 18 h) was 2, the “growth (G), size” value ([2]; strain 7611003, 18 h incubation) was 1 mm and the “intensity (I) of coloration” value ([2]; strain 7611003, 24 h) was 2. The “growth (G), size” value ([2]; strain 7611003, 24 h incubation) was 1.3 mm, the “intensity (I) of coloration” value ([2]; strain 7611003, >40 h) was 3 and the “growth (G), size” value ([2]; strain 7611003, >40 h incubation) was 1.7 mm. For the same substance, the “growth (G), size” value ([2]; strain 7701031, 18 h incubation) was 0.5 mm, the “intensity (I) of coloration” value ([2]; strain 7701031, 24 h) was 0.3 and the “growth (G), size” value ([2]; strain 7701031, 24 h incubation) was 0.7 mm. The “intensity (I) of coloration” value ([2]; strain 7701031, >40 h) was 0.8, the “growth (G), size” value ([2]; strain 7701031, >40 h incubation) was 1.5 mm and the “intensity (I) of coloration” value ([2]; strain 7702055, 18 h) was 1. For the same substance, the “growth (G), size” value ([2]; strain 7702055, 18 h incubation) was 0.7 mm, the “intensity (I) of coloration” value ([2]; strain 7702055, 24 h) was 2 and the “growth (G), size” value ([2]; strain 7702055, 24 h incubation) was 0.8 mm. The “intensity (I) of coloration” value ([2]; strain 7702055, >40 h) was 3, the “growth (G), size” value ([2]; strain 7702055, >40 h incubation) was 1.7 mm and the “intensity (I) of coloration” value ([2]; strain 8709013, 18 h) was 0.5. The “growth (G), size” value ([2]; strain 8709013, 18 h incubation) was 0.4 mm, the “intensity (I) of coloration” value ([2]; strain 8709013, 24 h) was 1 and the “growth (G), size” value ([2]; strain 8709013, 24 h incubation) was 0.5 mm. For the same substance, the “intensity (I) of coloration” value ([2]; strain 8709013, >40 h) was 2.7, the “growth (G), size” value ([2]; strain 8709013, >40 h incubation) was 0.7 mm and the “intensity (I) of coloration” value ([2]; strain 8904053, 18 h) was 0.5. For the same substance, the “growth (G), size” value ([2]; strain 8904053, 18 h incubation) was 0.7 mm, the “intensity (I) of coloration” value ([2]; strain 8904053, 24 h) was 0.8 and the “growth (G), size” value ([2]; strain 8904053, 24 h incubation) was 0.7 mm. The “intensity (I) of coloration” value ([2]; strain 8904053, >40 h) was 2.3 and the “growth (G), size” value ([2]; strain 8904053, >40 h incubation) was 1 mm.
